The results in this text go back to US20230357179A1, “RAF KINASE INHIBITORS AND METHODS OF USE THEREOF” (Deciphera Pharmaceuticals, LLC, priority 2021, published 2023).

Broadly, the IC50 is the midpoint of a concentration-inhibition curve.

Molecules are shown by their SMILES.

T4 sequence (P15056 416-766): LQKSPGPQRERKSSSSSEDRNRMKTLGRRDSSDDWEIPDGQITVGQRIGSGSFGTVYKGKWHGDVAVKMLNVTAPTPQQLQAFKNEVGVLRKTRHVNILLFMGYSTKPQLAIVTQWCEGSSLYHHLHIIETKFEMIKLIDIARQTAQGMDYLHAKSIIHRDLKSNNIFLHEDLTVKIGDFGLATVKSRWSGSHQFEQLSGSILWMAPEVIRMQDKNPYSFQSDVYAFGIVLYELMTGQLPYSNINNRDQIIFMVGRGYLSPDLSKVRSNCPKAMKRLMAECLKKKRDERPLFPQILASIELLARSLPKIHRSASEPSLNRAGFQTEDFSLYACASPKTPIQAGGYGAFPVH

The target of one assay is T1, B-Raf (V600E) kinase (Homo sapiens, UniProt P15056, V600E).
T1 construct: B-Raf (V600E) residues 416-766 with a; GST (N); purchased SignalChem
T1 sequence (P15056 416-766 V600E): as the sequence (P15056 416-766) above, with V185E counted along it
The experiment in a line: Biochemical assay for B-Raf (V600E).1 (coupled pyruvate kinase/lactate dehydrogenase). Conditions: read-out: BRAF V600E.1 IC50. Here is the method: Biochemical Assay for B-Raf (V600E).1
Activity of B-Raf (V600E) (SEQ. ID NO: 4) kinase was determined spectroscopically using a coupled pyruvate kinase/lactate dehydrogenase assay that continuously monitors the ATP hydrolysis-dependent oxidation of NADH (e.g., Schindler et al., Science, 2000, 289, 1938-1942). Assays were conducted in 384-well plates (100 μL final volume) using 0.03 nM B-Raf (SignalChem), 1.5 units pyruvate kinase, 2.1 units lactate dehydrogenase, 1 mM phosphoenol pyruvate, 0.28 mM NADH, 30.1 nM MEK (SignalChem), and 1 mM ATP in assay buffer (100 mM Tris, pH 7.5, 15 mM MgCl2, 0.5 mM DTT, 0.1% octyl-glucoside, 0.002% (w/v) BSA, and 0.002% Triton X-100). Inhibition of B-Raf (V600E) was measured by adding serial diluted test compound (final assay concentration of 1% DMSO). A decrease in absorption at 340 nm was monitored continuously for 6 h at 30° C. on a multi-mode microplate reader (BioTek). The reaction rate was calculated using the 3 to 4 h time frame. The reaction rate at each concentration of compound was converted to percent inhibition using controls (i.e., reaction with no test compound and reaction with a known inhibitor) and IC50 values were calculated by fitting a four-parameter sigmoidal curve to the data using Prism (GraphPad software).
Take `Cc1cc(F)c(NC(=O)N[C@H]2C[C@H](N(C)C)C2)cc1-c1cc(OCCO)nc(-c2ccnc3[nH]ncc23)c1` [Example 86]: the IC50 is 100 to 500 nM.
The same measure, in the same setting: the same measure for `CNC(=O)c1cc(-c2cnnc(-c3cc(NC(=O)N4CC[C@H](OC)C4)cnc3C)c2)ccn1` [Example 189]: more than 1000 nM; for `COC(=O)Nc1cc(-c2cnnc(-c3cccc(NC(=O)N4CC[C@H](OC)C4)c3)c2)ccn1` [Example 190]: more than 1000 nM; for `COC(=O)Nc1cc(-c2cnnc(-c3cc(NC(=O)N4CCC(C)(C)C4)cnc3C)c2)ccn1` [Example 191]: more than 1000 nM.
The same measure, in the same setting: the same measure for `CNC(=O)c1cc(-c2cnnc(-c3cc(NC(=O)N4CCC(CC(F)(F)F)C4)cnc3C)c2)ccn1` (stereo not shown) [Example 192]: more than 1000 nM.
On the same count and under the same terms, the same measure for `COC(=O)Nc1cc(-c2cc(-c3cc(NC(=O)N4CCC(C)(C)C4)cnc3C)ccn2)ccn1` [Example 198]: more than 1000 nM; for `COC(=O)Nc1cc(-c2cnnc(-c3cccc(NC(=O)N4CC[C@@H](OC)C4)c3)c2)ccn1` [Example 199]: more than 1000 nM.
Take `COC(=O)Nc1cc(-c2cnnc(-c3cc(NC(=O)N4CC[C@@H](OC)C4)cnc3C)c2)ccn1` [Example 203]: the IC50 is more than 1000 nM.
Same read-out and setting: the same measure for `CNC(=O)c1cc(-c2cnnc(-c3cc(NC(=O)N4CC[C@@H](OC)C4)cnc3C)c2)ccn1` [Example 204]: more than 1000 nM.
The same measure, in the same setting: the same measure for `COC(=O)Nc1cc(-c2cc(-c3cc(NC(=O)N4CCC(C(C)(C)O)C4)cnc3C)ccn2)ccn1` (stereo not shown) [Example 212]: more than 1000 nM.

A further assay deals with T2, A-Raf kinase (Homo sapiens, UniProt P10398, Y301D/Y302D).
T2 construct: purchased Sigma
T2 sequence (P10398 with tags, fused parts or gaps Y301D/Y302D): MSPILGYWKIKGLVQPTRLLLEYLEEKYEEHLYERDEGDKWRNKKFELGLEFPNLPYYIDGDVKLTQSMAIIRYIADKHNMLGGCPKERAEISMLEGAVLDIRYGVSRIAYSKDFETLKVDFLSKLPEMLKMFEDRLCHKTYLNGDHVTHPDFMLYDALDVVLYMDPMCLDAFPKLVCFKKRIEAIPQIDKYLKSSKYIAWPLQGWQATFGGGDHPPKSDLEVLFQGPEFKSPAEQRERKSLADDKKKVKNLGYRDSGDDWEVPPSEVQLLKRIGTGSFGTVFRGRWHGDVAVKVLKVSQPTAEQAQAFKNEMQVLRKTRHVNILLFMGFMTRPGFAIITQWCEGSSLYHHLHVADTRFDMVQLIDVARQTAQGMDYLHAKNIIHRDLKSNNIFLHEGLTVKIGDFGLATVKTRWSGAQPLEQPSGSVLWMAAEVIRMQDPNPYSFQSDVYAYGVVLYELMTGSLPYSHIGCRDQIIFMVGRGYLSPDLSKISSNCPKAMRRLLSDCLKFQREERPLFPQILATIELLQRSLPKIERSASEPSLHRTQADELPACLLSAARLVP
The experiment in a line: Biochemical assay for A-Raf.1 (coupled pyruvate kinase/lactate dehydrogenase). Conditions: read-out: ARAF.1 IC50. Here is the method: Biochemical assay for A-Raf.1
(§1) Activity of A-Raf kinase (SEQ. ID NO. 1) was determined spectroscopically using a coupled pyruvate kinase/lactate dehydrogenase assay that continuously monitors the ATP hydrolysis-dependent oxidation of NADH (e.g., Schindler et al., Science, 2000, 289, 1938-1942). Assays were conducted in 384-well plates (100 μL final volume) using 5.55 nM A-Raf (Sigma), 1.5 units pyruvate kinase, 2.1 units lactate dehydrogenase, 1 mM phosphoenol pyruvate, 0.28 mM NADH, 30.1 nM MEK (SignalChem), and 1 mM ATP in assay buffer (100 mM Tris, pH 7.5, 15 mM MgCl2, 0.5 mM DTT, 0.1% octyl-glucoside, 0.002% (w/v) BSA, and 0.002% Triton X-100). Inhibition of A-Raf was measured by adding serial diluted test compound (final assay concentration of 1% DMSO). A decrease in absorption at 340 nm was monitored continuously for 6 h at 30° C. on a multi-mode microplate reader (BioTek). The reaction rate was calculated using the 4 to 5 h time frame. The reaction rate at each concentration of compound was converted to percent inhibition using controls (i.e., reaction with no test compound and reaction with a known inhibitor) and IC50 values were calculated by fitting a four-parameter sigmoidal curve to the data using Prism (GraphPad software).
For the molecule `Cc1cc(F)c(NC(=O)N[C@H]2C[C@H](N(C)C)C2)cc1-c1cc(OCCO)nc(-c2ccnc3[nH]ncc23)c1` [Example 86], the concentration for half-maximal inhibition (IC50) was more than 1000 nM.
The same measure, in the same setting: under `CNC(=O)c1cc(-c2cnnc(-c3cc(NC(=O)N4CC[C@H](OC)C4)cnc3C)c2)ccn1` [Example 189] stands more than 1000 nM.
Still for that read-out and setting: under `COC(=O)Nc1cc(-c2cnnc(-c3cccc(NC(=O)N4CC[C@H](OC)C4)c3)c2)ccn1` [Example 190] stands more than 1000 nM; under `COC(=O)Nc1cc(-c2cnnc(-c3cc(NC(=O)N4CCC(C)(C)C4)cnc3C)c2)ccn1` [Example 191], more than 1000 nM; under `CNC(=O)c1cc(-c2cnnc(-c3cc(NC(=O)N4CCC(CC(F)(F)F)C4)cnc3C)c2)ccn1` (stereo not shown) [Example 192], more than 1000 nM.
Same read-out and setting: the same measure for `COC(=O)Nc1cc(-c2cc(-c3cc(NC(=O)N4CCC(C)(C)C4)cnc3C)ccn2)ccn1` [Example 198]: more than 1000 nM; for `COC(=O)Nc1cc(-c2cnnc(-c3cccc(NC(=O)N4CC[C@@H](OC)C4)c3)c2)ccn1` [Example 199]: more than 1000 nM; for `COC(=O)Nc1cc(-c2cnnc(-c3cc(NC(=O)N4CC[C@@H](OC)C4)cnc3C)c2)ccn1` [Example 203]: more than 1000 nM.
Turning to `CNC(=O)c1cc(-c2cnnc(-c3cc(NC(=O)N4CC[C@@H](OC)C4)cnc3C)c2)ccn1` [Example 204], the 50% inhibitory concentration (IC50) was more than 1000 nM.
With `COC(=O)Nc1cc(-c2cc(-c3cc(NC(=O)N4CCC(C(C)(C)O)C4)cnc3C)ccn2)ccn1` (stereo not shown) [Example 212], the IC50 is more than 1000 nM.

The target of the next assay is T3, C-Raf kinase (Homo sapiens, UniProt P04049, Y340D/Y341D).
T3 construct: Y340D,; GST (N); purchased Sigma
T3 sequence (P04049 307-648 Y340D/Y341D): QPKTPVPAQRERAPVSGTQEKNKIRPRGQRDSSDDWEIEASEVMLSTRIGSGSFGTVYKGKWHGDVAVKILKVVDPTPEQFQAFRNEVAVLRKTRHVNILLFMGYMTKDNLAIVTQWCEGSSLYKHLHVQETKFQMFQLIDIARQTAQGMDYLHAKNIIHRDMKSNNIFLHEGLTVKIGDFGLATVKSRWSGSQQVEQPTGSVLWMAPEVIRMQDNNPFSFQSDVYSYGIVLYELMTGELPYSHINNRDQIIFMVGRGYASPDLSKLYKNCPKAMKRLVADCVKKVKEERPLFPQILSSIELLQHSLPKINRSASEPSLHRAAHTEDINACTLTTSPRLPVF
In words: Biochemical assay for C-Raf.1 (coupled pyruvate kinase/lactate dehydrogenase). The conditions noted are these: read-out: CRAF.1 IC50. Here is the method: Biochemical Assay for C-Raf.1
as §1, with “C-Raf” for “A-Raf”, “NO: 3)” for “NO. 1)”, “0.43” for “5.55”
On to `Cc1cc(F)c(NC(=O)N[C@H]2C[C@H](N(C)C)C2)cc1-c1cc(OCCO)nc(-c2ccnc3[nH]ncc23)c1` [Example 86], for which the IC50 was more than 1000 nM.
Turning to `CNC(=O)c1cc(-c2cnnc(-c3cc(NC(=O)N4CC[C@H](OC)C4)cnc3C)c2)ccn1` [Example 189], the IC50 was more than 1000 nM.
`COC(=O)Nc1cc(-c2cnnc(-c3cccc(NC(=O)N4CC[C@H](OC)C4)c3)c2)ccn1` [Example 190]: the IC50 is more than 1000 nM.
Same read-out and setting: under `COC(=O)Nc1cc(-c2cnnc(-c3cc(NC(=O)N4CCC(C)(C)C4)cnc3C)c2)ccn1` [Example 191] stands more than 1000 nM.
Same read-out and setting: the same measure for `CNC(=O)c1cc(-c2cnnc(-c3cc(NC(=O)N4CCC(CC(F)(F)F)C4)cnc3C)c2)ccn1` (stereo not shown) [Example 192]: 500 to 1000 nM; for `COC(=O)Nc1cc(-c2cc(-c3cc(NC(=O)N4CCC(C)(C)C4)cnc3C)ccn2)ccn1` [Example 198]: 100 to 500 nM; for `COC(=O)Nc1cc(-c2cnnc(-c3cccc(NC(=O)N4CC[C@@H](OC)C4)c3)c2)ccn1` [Example 199]: more than 1000 nM.
Regarding `COC(=O)Nc1cc(-c2cnnc(-c3cc(NC(=O)N4CC[C@@H](OC)C4)cnc3C)c2)ccn1` [Example 203], the IC50 is more than 1000 nM.
The same measure, in the same setting: under `CNC(=O)c1cc(-c2cnnc(-c3cc(NC(=O)N4CC[C@@H](OC)C4)cnc3C)c2)ccn1` [Example 204] stands more than 1000 nM; under `COC(=O)Nc1cc(-c2cc(-c3cc(NC(=O)N4CCC(C(C)(C)O)C4)cnc3C)ccn2)ccn1` (stereo not shown) [Example 212], 500 to 1000 nM.

A further assay has as its target T4, B-Raf kinase (Homo sapiens, UniProt P15056).
T4 construct: GST (N); purchased Sigma
In words: Biochemical assay for B-Raf.1 (coupled pyruvate kinase/lactate dehydrogenase). Conditions: read-out: BRAF.1 IC50. Here is the method:
Biochemical Assay for B-Raf.1
Activity of B-Raf kinase (SEQ. ID NO: 2) was determined spectroscopically using a coupled pyruvate kinase/lactate dehydrogenase assay that continuously monitors the ATP hydrolysis-dependent oxidation of NADH (e.g., Schindler et al., Science, 2000, 289, 1938-1942). Assays were conducted in 384-well plates (100 μL final volume) using 0.13 nM B-Raf (Sigma), 1.5 units pyruvate kinase, 2.1 units lactate dehydrogenase, 1 mM phosphoenol pyruvate, 0.28 mM NADH, 30.1 nM MEK (SignalChem), and 1 mM ATP in assay buffer (100 mM Tris, pH 7.5, 15 mM MgCl2, 0.5 mM DTT, 0.1% octyl-glucoside, 0.002% (w/v) BSA, and 0.002% Triton X-100). Inhibition of B-Raf was measured by adding serial diluted test compound (final assay concentration of 1% DMSO). A decrease in absorption at 340 nm was monitored continuously for 6 h at 30° C. on a multi-mode microplate reader (BioTek). The reaction rate was calculated using the 4 to 5 h time frame. The reaction rate at each concentration of compound was converted to percent inhibition using controls (i.e., reaction with no test compound and reaction with a known inhibitor) and IC50 values were calculated by fitting a four-parameter sigmoidal curve to the data using Prism (GraphPad software).
For the molecule `Cc1cc(F)c(NC(=O)N[C@H]2C[C@H](N(C)C)C2)cc1-c1cc(OCCO)nc(-c2ccnc3[nH]ncc23)c1` [Example 86], the IC50 was more than 1000 nM.
Still for that read-out and setting: the same measure for `CNC(=O)c1cc(-c2cnnc(-c3cc(NC(=O)N4CC[C@H](OC)C4)cnc3C)c2)ccn1` [Example 189]: more than 1000 nM; for `COC(=O)Nc1cc(-c2cnnc(-c3cccc(NC(=O)N4CC[C@H](OC)C4)c3)c2)ccn1` [Example 190]: more than 1000 nM; for `COC(=O)Nc1cc(-c2cnnc(-c3cc(NC(=O)N4CCC(C)(C)C4)cnc3C)c2)ccn1` [Example 191]: more than 1000 nM.
Same read-out and setting: under `CNC(=O)c1cc(-c2cnnc(-c3cc(NC(=O)N4CCC(CC(F)(F)F)C4)cnc3C)c2)ccn1` (stereo not shown) [Example 192] stands more than 1000 nM; under `COC(=O)Nc1cc(-c2cc(-c3cc(NC(=O)N4CCC(C)(C)C4)cnc3C)ccn2)ccn1` [Example 198], 500 to 1000 nM.
Consider `COC(=O)Nc1cc(-c2cnnc(-c3cccc(NC(=O)N4CC[C@@H](OC)C4)c3)c2)ccn1` [Example 199], for which the IC50 is more than 1000 nM.
As to `COC(=O)Nc1cc(-c2cnnc(-c3cc(NC(=O)N4CC[C@@H](OC)C4)cnc3C)c2)ccn1` [Example 203], the IC50 was more than 1000 nM.
Same read-out and setting: under `CNC(=O)c1cc(-c2cnnc(-c3cc(NC(=O)N4CC[C@@H](OC)C4)cnc3C)c2)ccn1` [Example 204] stands more than 1000 nM; under `COC(=O)Nc1cc(-c2cc(-c3cc(NC(=O)N4CCC(C(C)(C)O)C4)cnc3C)ccn2)ccn1` (stereo not shown) [Example 212], more than 1000 nM.
